Measurements: patent US10316035B2, “Triazolopyridine inhibitors of myeloperoxidase” (BRISTOL-MYERS SQUIBB COMPANY, priority 2015, dated 2019)

Key:
myeloperoxidase (MPO) [1] = target: T1, myeloperoxidase (MPO) (Homo sapiens, UniProt P05164); test: MPO peroxidation assay (Amplex Red assay); assay type: biochemical; conditions: MPO peroxidation, potency range class; read-out: Amplex Red IC50
T1 sequence (P05164 49-745): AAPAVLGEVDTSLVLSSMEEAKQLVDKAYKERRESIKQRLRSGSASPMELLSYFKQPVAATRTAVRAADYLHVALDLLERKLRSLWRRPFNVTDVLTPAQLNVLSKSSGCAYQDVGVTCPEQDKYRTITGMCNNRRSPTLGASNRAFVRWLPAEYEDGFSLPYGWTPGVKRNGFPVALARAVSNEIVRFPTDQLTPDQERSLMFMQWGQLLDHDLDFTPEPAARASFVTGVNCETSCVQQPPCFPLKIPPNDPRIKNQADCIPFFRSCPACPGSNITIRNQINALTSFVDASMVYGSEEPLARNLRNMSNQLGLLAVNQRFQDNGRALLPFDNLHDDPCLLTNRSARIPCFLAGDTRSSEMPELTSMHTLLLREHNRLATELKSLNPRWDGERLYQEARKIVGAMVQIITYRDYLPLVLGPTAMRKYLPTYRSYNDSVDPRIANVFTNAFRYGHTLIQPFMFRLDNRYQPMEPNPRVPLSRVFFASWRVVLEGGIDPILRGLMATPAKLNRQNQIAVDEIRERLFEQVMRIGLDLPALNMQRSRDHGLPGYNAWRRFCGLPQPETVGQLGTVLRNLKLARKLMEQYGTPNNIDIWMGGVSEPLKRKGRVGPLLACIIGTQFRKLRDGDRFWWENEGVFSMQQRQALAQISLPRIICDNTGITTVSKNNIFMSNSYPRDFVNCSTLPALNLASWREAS
In short: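 MPO (200 pM) with 40 nM H2O2 was preincubated 10 min at room temperature with inhibitor in 100 mM KPi pH 7.4. A mix of Amplex Red (200 μM) and H2O2 (10 mM) was then added and resorufin fluorescence read kinetically for 15 min. Slopes over 180–540 s gave % inhibition and IC50 via a four-parameter Hill fit.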

myeloperoxidase (MPO) [2] = target: T1, myeloperoxidase (MPO); test: MPO chlorination assay (APF assay); assay type: biochemical; conditions: MPO chlorination, potency range class; read-out: APF IC50
Experimental: [formula] where A=minimal Y value (activity level of inhibited sample), B=maximal Y value (activity level of uninhibited sample), C=Log IC50, D=Hill Slope, x=concentration of inhibitor. MPO Chlorination Assay (APF Assay)
MPO chlorination activity was measured in 100 mM KPi (pH 7.4) by utilizing the non-fluorescent reagent Aminophenyl fluorescein (APF, Invitrogen catalog #A36003). APF is cleaved by (—OCl) to yield the fluorescent compound fluorescein. Reactions were carried out in 50 μL total volume by adding a 25 μL mixture of 200 pM myeloperoxidase and 120 mM NaCl to 100 nL inhibitor in 100% DMSO in a 384 well, non-binding surface clear bottom plate (CORNING® #3655). Enzyme, inhibitor, and chloride were preincubated for ten minutes at room temperature.
After the ten minute preincubation, 25 μL of an APF mixture containing […], 120 mM NaCl and 10 μM H2O2 was added to the plate using the internal dispensing system of a Hammatsu FDSS 6000. Kinetic determinations were carried out immediately on the FDSS 6000 (3 minute kinetic read, 1 read every second, ex: 485 nm, em: 535 nm). IC50 values for inhibitors were calculated by taking the slope of the linear portion of the kinetic measurement (20 seconds to ˜80-120 secs).
IC50 values were calculated by determining the slope of the linear portion of the kinetic trace ([…]), and using that calculated slope to determine % inhibition occurring at each concentration of inhibitor using the following equation:
[formula] where A=minimal Y value (activity level of inhibited sample), B=maximal Y value (activity level of uninhibited sample), C=Log IC50, D=Hill Slope, x=concentration of inhibitor. EPX Bromination Assay

| SMILES | IC50 (myeloperoxidase (MPO) [1]) [nM] | IC50 (myeloperoxidase (MPO) [2]) [nM] |
| --- | --- | --- |
| Nc1cc(OCc2cc(Cl)ccc2OC(F)(F)F)c2nn[nH]c2n1 [Example 36, 7-(5-Chloro-2-(trifluoromethoxy)benzyloxy)-3H-[1,2,3]triazolo[4,5-b]pyridin-5-amine] | 1 to 100 | 1 to 100 |
| Nc1cc(OCc2cc(Cl)ccc2OC2CCCC2)c2nn[nH]c2n1 [Example 43, 7-(5-Chloro-2-(cyclopentyloxy)benzyloxy)-3H-[1,2,3]triazolo[4,5-b]pyridin-5-amine] | 1 to 100 | 101 to 999 |
| CS(=O)(=O)c1ccc(Cl)cc1COc1cc(N)nc2[nH]nnc12 [Example 50, 7-(5-Chloro-2-(methylsulfonyl)benzyloxy)-3H-[1,2,3]triazolo[4,5-b]pyridin-5-amine] | 1 to 100 | 101 to 999 |
| Nc1cc(OCC2CCCc3ccccc32)c2nn[nH]c2n1 (stereo not shown) [Example 52, 7-((1,2,3,4-Tetrahydronaphthalen-1-yl)methoxy)-3H-[1,2,3]triazolo[4,5-b]pyridin-5-amine] | 101 to 999 | 1000 to 10000 |
| COc1ccc(Cl)cc1COc1cc(N)nc2[nH]nnc12 [Example 57, 7-(5-Chloro-2-methoxybenzyloxy)-3H-[1,2,3]triazolo[4,5-b]pyridin-5-amine] | 1 to 100 | 1 to 100 |
| Nc1cc(OCc2cc(Br)ccc2F)c2nn[nH]c2n1 [Example 61, 7-(5-Bromo-2-fluorobenzyloxy)-3H-[1,2,3]triazolo[4,5-b]pyridin-5-amine] | 1 to 100 | 1 to 100 |
| CC1CCCC(C)C1COc1cc(N)nc2[nH]nnc12 (stereo not shown) [Example 133, 7-((2,6-Dimethylcyclohexyl)methoxy)-3H-[1,2,3]triazolo[4,5-b]pyridin-5-amine] | 1 to 100 | 101 to 999 |
| N#Cc1cc(-c2ccc(F)nc2)ccc1COc1cc(N)nc2[nH]nnc12 [Example 330, 2-(((5-amino-3H-[1,2,3]triazolo[4,5-b]pyridin-7-yl)oxy)methyl)-5-(6-fluoropyridin-3-yl)benzonitrile] | 1 to 100 | – |
| COc1ccccc1CNC(=O)c1ccc(COc2cc(N)nc3[nH]nnc23)c(Cl)c1 [Example 331, 4-((5-amino-3H-[1,2,3]triazolo[4,5-b]pyridin-7-yloxy)methyl)-3-chloro-N-(2-methoxybenzyl) benzamide] | 1 to 100 | – |
| Nc1cc(OCc2c(F)cc(-c3cccnc3)cc2F)c2nn[nH]c2n1 [Example 332, 7-((2,6-difluoro-4-(pyridin-3-yl)benzyl)oxy)-3H-[1,2,3] triazolo[4,5-b]pyridin-5-amine] | 1 to 100 | – |
| COc1ccc(-c2cc(F)c(COc3cc(N)nc4[nH]nnc34)c(F)c2)cn1 [Example 333, 7-((2,6-difluoro-4-(6-methoxypyridin-3-yl)benzyl)oxy)-3H-[1,2,3]triazolo[4,5-b] pyridin-5-amine] | 1 to 100 | – |
| Nc1cc(OCc2c(F)cc(-c3ccc(N4CCOCC4)nc3)cc2F)c2nn[nH]c2n1 [Example 335, 7-((2,6-difluoro-4-(6-morpholinopyridin-3-yl)benzyl)oxy)-3H-[1,2,3]triazolo[4,5-b] pyridin-5-amine] | 1 to 100 | – |
| Nc1ccc(-c2cc(F)c(COc3cc(N)nc4[nH]nnc34)c(F)c2)cn1 [Example 337, 7-((4-(6-aminopyridin-3-yl)-2,6-difluorobenzyl)oxy)-3H-[1,2,3]triazolo[4,5-b] pyridin-5-amine] | 1 to 100 | – |
| N#Cc1ccc(-c2cc(F)c(COc3cc(N)nc4[nH]nnc34)c(F)c2)cn1 [Example 338, 5-(4-(((5-amino-3H-[1,2,3]triazolo[4,5-b]pyridin-7-yl)oxy)methyl)-3,5-difluorophenyl) picolinonitrile] | 1 to 100 | – |
| Nc1cc(OCc2c(F)cc(-c3ccc(OCc4ccccc4)nc3)cc2F)c2nn[nH]c2n1 [Example 339, 7-((4-(6-(benzyloxy)pyridin-3-yl)-2,6-difluorobenzyl)oxy)-3H-[1,2,3]triazolo[4,5-b] pyridin-5-amine] | 101 to 999 | – |
| Nc1cc(OCc2c(F)cc(-c3ccc(F)nc3F)cc2F)c2nn[nH]c2n1 [Example 340, 7-((4-(2,6-difluoropyridin-3-yl)-2,6-difluorobenzyl)oxy)-3H-[1,2,3]triazolo[4,5-b]pyridin-5-amine] | 101 to 999 | – |
| NC(=O)c1ccc(-c2cc(F)c(COc3cc(N)nc4[nH]nnc34)c(F)c2)cn1 [Example 341, 5-(4-(((5-amino-3H-[1,2,3]triazolo[4,5-b]pyridin-7-yl)oxy)methyl)-3,5-difluorophenyl) picolinamide] | 1 to 100 | – |

Further lines, results first:

| IC50 (myeloperoxidase (MPO) [1]) [nM] | IC50 (myeloperoxidase (MPO) [2]) [nM] | SMILES |
| --- | --- | --- |
| 1 to 100 | – | Nc1cc(OCc2c(F)ccc(-c3ccc(N4CCOCC4)nc3)c2Cl)c2nn[nH]c2n1 [Example 342, 7-((2-chloro-6-fluoro-3-(6-morpholinopyridin-3-yl)benzyl)oxy)-3H-[1,2,3]triazolo[4,5-b] pyridin-5-amine] |
| 1 to 100 | – | Nc1cncc(-c2ccc(F)c(COc3cc(N)nc4[nH]nnc34)c2Cl)c1 [Example 343, 7-((3-(5-aminopyridin-3-yl)-2-chloro-6-fluorobenzyl)oxy)-3H-[1,2,3]triazolo[4,5-b] pyridin-5-amine] |
| 1 to 100 | – | Nc1cc(OCc2c(F)ccc(-c3ccc(N4CCNCC4)nc3)c2Cl)c2nn[nH]c2n1 [Example 344, 7-((2-chloro-6-fluoro-3-(6-(piperazin-1-yl)pyridin-3-yl)benzyl)oxy)-3H-[1,2,3]triazolo [4,5-b]pyridin-5-amine] |
| 101 to 999 | – | CN1CCN(c2ccc(-c3ccc(F)c(COc4cc(N)nc5[nH]nnc45)c3)cn2)CC1 [Example 346, 7-((2-fluoro-5-(6-(4-methylpiperazin-1-yl)pyridin-3-yl)benzyl)oxy)-3H-[1,2,3]triazolo [4,5-b]pyridin-5-amine] |
| 1 to 100 | – | Nc1cc(OCc2cc(-c3ccc(CO)nc3)ccc2F)c2nn[nH]c2n1 [Example 347, (5-(3-(((5-amino-3H-[1,2,3]triazolo[4,5-b]pyridin-7-yl)oxy)methyl)-4-fluorophenyl)pyridin-2-yl)methanol] |
| 101 to 999 | – | CN1CCN(c2ncc(-c3ccc(F)c(COc4cc(N)nc5[nH]nnc45)c3Cl)cn2)CC1 [Example 348, 7-((2-chloro-6-fluoro-3-(2-(4-methylpiperazin-1-yl)pyrimidin-5-yl)benzyl)oxy)-3H-[1,2,3]triazolo[4,5-b] pyridin-5-amine] |
| 101 to 999 | – | N#Cc1cc(-c2ccc(N3CCNC(=O)C3)nc2)ccc1COc1cc(N)nc2[nH]nnc12 [Example 349, 2-(((5-Amino-3H-[1,2,3]triazolo[4,5-b]pyridin-7-yl)oxy)methyl)-5-(6-(3-oxopiperazin-1-yl)pyridin-3-yl)benzonitrile] |
| 1 to 100 | – | CC1CN(c2ccc(-c3ccc(COc4cc(N)nc5[nH]nnc45)c(C#N)c3)cn2)CC(C)N1 (stereo not shown) [Example 350, 2-(((5-Amino-3H-[1,2,3]triazolo[4,5-b]pyridin-7-yl)oxy)methyl)-5-(6-(3,5-dimethylpiperazin-1-yl)pyridin-3-yl)benzonitrile] |
| 1 to 100 | – | N#Cc1ccc(OC(F)F)cc1COc1cc(N)nc2[nH]nnc12 [Example 351, 2-(((5-amino-3H-[1,2,3]triazolo[4,5-b]pyridin-7-yl)oxy)methyl)-4-(difluoromethoxy)benzonitrile] |
| 1 to 100 | – | N#Cc1ccc(OC2CC2)cc1COc1cc(N)nc2[nH]nnc12 [Example 352, 2-(((5-amino-3H-[1,2,3]triazolo[4,5-b]pyridin-7-yl)oxy)methyl)-4-cyclopropoxybenzonitrile] |
